Patent publication US11466020B2, “Compounds and compositions for inhibition and elimination of Zika infection and uses for same” (Cornell University, priority 2017, dated 2022)

Assays:
ZIKV MR766 = test: Inhibition of ZIKV infection of hNPCs (high content screen / inhibitory curve, ZIKV E staining); assay type: cell-based, Zika virus; details: 20 μM Merbromin, 72 h after ZIKV infection
Description: A high content chemical screen identifies compounds that inhibit ZIKV infection of hNPCs. To identify drugs that inhibit ZIKV infection, we screened the Prestwick library that includes 1120 FDA-approved drug and drug candidates, selected for known bioavailability and safety in humans. To perform the screen, hNPCs seeded in 384-well plates were treated with each compound from the library or vehicle control (DMSO) for 1 hour, followed by addition of ZIKV MR766 at a MOI=0.125. After two hour of inoculation with ZIKV, the virus-containing medium was replaced by fresh virus-free medium and compounds were replenished for each well (See Methods). After an additional three days of culture, cells were fixed and stained with antibodies against the ZIKV envelop protein (ZIKV E) and a cell proliferation marker Ki67 (FIG. 1A). The percentages of ZIKV E^+ cells, Ki67^+ cells and total cell number were quantified by an automated imaging and analysis system. A two dimensional analysis was performed to choose the primary hit compounds (FIG. 5A). The X-axis represents the fold change of total cell number, which was calculated by dividing the total cell number of the chemical-treated well by the average total cell number of DMSO-treated wells. The Y-axis represents the fold change of the percentage of ZIKV infected cells, which was calculated by dividing the percentage of cells expressing ZIKV E in each chemical-treated well by the average of the percentage of cells expressing ZIKV E from DMSO-treated wells. […] Based on the fold change of the percentage of ZIKV infection, the signal-to-basal (S/B) ratio is 4.2 and the coefficient of variation (CV) is 6.9%. The Z factor is 0.59 indicating a robust screening system.
hNPCs were plated on 96-well plates at 8.5×10^4/cm^2. After overnight incubation, hNPCs were infected with ZIKV (MR766 strain, MOI=0.125) for 2 h, and changed to virus-free medium. The cells were maintained in NPC medium with daily medium change. Three days later, the supernatant and cells were collected and used for assays. hESC-derived forebrain organoids were infected with ZIKV MR766 (5×10^5 PFU/ml) for 24 h. After removal of virus containing medium, forebrain organoids were maintained in forebrain organoid medium for an additional 3 or 17 days and then used for assays.
High-content Screen. hNPCs were dissociated and plated on Matrigel-coated 384-well plates for the chemical screen. […] DMSO was used as a negative control. ZIKV MR766 was added at MOI=0.125. After 2 hour infection, the supernatant was replaced with fresh medium and compounds from the same chemical library were added to the same wells. After an additional 3 days incubation, cells were fixed, stained with antibodies against ZIKV envelop protein (ZIKV E) and proliferation marker Ki67, and analyzed with the ImageXpress^MICRO Automated High-Content Analysis System. […] X-axis represents the fold change of total cell number, which was calculated by dividing the total cell number of the chemical treated well by the average of total cell number of DMSO treated wells. Y-axis represents the fold change of the percentage of ZIKV infection, which was calculated by dividing the percentage of ZIKV infection of the chemical treated well by the average of the percentage of ZIKV infection of DMSO treated wells. The compounds in which the fold change of total cell number >1 and the fold change of the percentage of ZIKV infection <20% were further evaluated. […]

hNPCs = test: hNPC viability, proliferation, apoptosis and identity; assay type: cell-based, human; details: 20 μM Merbromin, 72 h after ZIKV infection
Description: (A) Scheme of high content chemical screen. (B) Chemical structure of hit compounds. (C) Inhibitory curve and IC50 of HH or AQ on hNPCs (n=6). (D-H) Immunocytochemistry analysis (D), the quantification of the infection rate (E), the quantification of proliferation rate (F), the quantification of cell apoptosis rate (G) and the normalized cell viability (H) of hNPCs at 72 h after ZIKV (MR 766 strain) infection with or without drug treatment. Scale bars, 100 μm. The ZIKV infection rate is defined as the percentage of ZIKV E^+ cells. The proliferation rate is defined as the percentages of Ki67^+ cells. The cell apoptosis rate was defined as the percentage of cleaved-Caspase 3/CAS3^+ cells. The normalized cell viability was calculated by dividing the total cell number of each condition by the total cell number under mock infection conditions. (n=6). (I) qRT-PCR analysis to monitor the total ZIKV vRNA in the supernatant of hNPC cultures at 72 h after ZIKV infection with or without drug treatment. (J) Vero cell reinfection assay to monitor the ZIKV infectious particles in the supernatant of hNPC cultures with or without drug treatment. To perform the Vero cell reinfection assay, hNPCs at 72 h after ZIKV infection were washed three times and changed to drug free medium for an additional 24 h. Vero cells were infected with the supernatant collected from hNPCs for 2 h and changed to virus free medium for an additional 24 h. Vero cells were stained with antibody against ZIKV E and DAPI. Scale bars, 200 μm. (n=3). (K) Quantification of ZIKV infectious particles produced by ZIKV-infected hNPCs with or without compound treatment by the Vero cell reinfection assay. (L) Heatmap analysis of mock-infected hNPCs treated with DMSO (mock); mock infected hNPCs treated with 25 μM HH (HH), mock-infected hNPCs treated with 15 μM AQ (AQ), ZIKV (MR766 strain, MOI=0.125) infected hNPCs treated with DMSO (ZIKV+DMSO); ZIKV-infected hNPCs treated with 25 μM HH (ZIKV+HH), and ZIKV-infected hNPCs treated with 15 μM AQ (ZIKV+AQ). […] (M and N) Immunocytochemistry analysis (M) and quantification of the infection rate (N) of hNPCs at 72 h after ZIKV (PRVABC59 strain) infection with or without drug treatment (n=6). Scale bars, 100 μm. p values were calculated by one-way repeated measures ANOVA with a Bonferroni test for multiple comparisons. *p<0.05, **p<0.01 and ***p<0.001.
(A) Scheme to evaluate the elimination of ZIKV. At day 0, hNPCs were infected with ZIKV for 2 h. After removal of ZIKV infection medium, hNPCs were treated with drug candidates. At day 3, the culture medium was changed to fresh medium without compounds. The cells were maintained in drug-free culture until day 6 and used for immunohistochemistry and qRT-PCR. (B and C) Inhibitory curve and IC50 of HH calculated based on the infection rate (B) and normalized cell viability (C) (n=6). (D and E) Immunocytochemistry analysis (D) and the quantification of infection rate, cell apoptosis rate, and total cell number (E) of hNPCs on day 3 and day 6. Cells was fixed and stained with cleaved Caspase-3 (CAS3), ZIKV E and DAPI. Scale bars, 100 μm. (F) qRT-PCR analysis to monitor the total ZIKV vRNA in the supernatant of hNPC cultures on day 6. Scale bars, 200 μm. (n=3). (G) Vero cell reinfection assay to monitor the infective ZIKV vRNA in the supernatant of hNPC cultures at day 6 after ZIKV infection. Scale bars, 200 μm. (n=3). (H) Quantification of ZIKV infectious particles produced by ZIKV-infected hNPCs at day 6 by the Vero cell reinfection assay. (I) hNPCs with or without ZIKV infection treated with HH maintain hNPC marker expression and differentiation capacity. hNPCs with or without ZIKV MR766 infection were treated with 25 μM HH or DMSO for 3 days and then stained for SOX2, NESTIN and with DAPI. hNPCs with or without ZIKV infection and treated with HH or DMSO for 3 days were differentiated to cortical neurons. The cortical neurons were then fixed and stained for MAP2, TUJ1 and with DAPI. Scale bars, 100 μm. (n=3). […]

## O=C([O-])c1ccccc1-c1c2cc(Br)c(=O)cc-2oc2[c]([Hg+])c([O-])c(Br)cc12.[Na+].[Na+].[OH-] [Merbromin]
ZIKV MR766
  ZIKV infection of hNPCs: did not affect ZIKV infection
hNPCs
  hNPC proliferation in ZIKV infected hNPCs: significantly increased
  total cell loss in ZIKV infected hNPCs: rescued the total cell loss
